Measured values published in patent publication US20060167096A1, “Livestock products with an increased ppar/rxr heterodimer activator level” (priority 2003, published 2006).
Read-outs that look alike come from different tables or passages of the source.

Assays:
RXR = conditions: cell research; Kitareewan 1996; cited from earlier work
PPAR alpha = biological target: T1, PPAR alpha (Homo sapiens, UniProt Q07869); conditions: cited from earlier work
T1 sequence (Q07869 1-468): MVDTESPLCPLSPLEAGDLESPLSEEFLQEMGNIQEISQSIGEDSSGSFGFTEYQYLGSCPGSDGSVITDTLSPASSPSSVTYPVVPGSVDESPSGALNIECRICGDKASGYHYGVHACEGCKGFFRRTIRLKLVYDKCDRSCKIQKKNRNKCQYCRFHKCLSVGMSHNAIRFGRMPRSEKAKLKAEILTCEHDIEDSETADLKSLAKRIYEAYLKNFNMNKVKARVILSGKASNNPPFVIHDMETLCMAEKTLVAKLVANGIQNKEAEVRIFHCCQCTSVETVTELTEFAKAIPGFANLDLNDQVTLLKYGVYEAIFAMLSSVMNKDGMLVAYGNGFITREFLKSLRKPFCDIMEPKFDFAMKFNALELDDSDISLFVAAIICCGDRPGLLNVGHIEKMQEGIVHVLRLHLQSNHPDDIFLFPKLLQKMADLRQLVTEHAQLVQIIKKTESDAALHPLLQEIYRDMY

Hybrid boars = assay: Pork finishing trial with phytol sprayed feed; assay type: in vivo, pig
Protocol: (§1) In the present specification the level of the PPAR/RXR heterodimer activator is expressed as a percentage of total FAME fatty acids. These total FAME fatty acids comprise those fatty acids with a linear chain of at least 12 carbons and are measured by the so-called FAME technique, which is well known for the skilled person and wherein, first, fatty acid methyl esters are prepared which are, subsequently, analysed via gas chromatography. The FAME procedure used for determining the results obtained by the present invention was as follows. Lipids were extracted from the samples using a dissolving solution that is specific to each sample type. Nonadecanoic acid (19:0) was added as an internal standard. The two-step methylation procedure consisted of using a basic reagent NaOH/methanol followed by an acid reagent HCI/methanol. The fatty acid methyl esters (FAME) were analyzed by GC (HP 6890, Hewlett-Packard, Brussels, Belgium) using a CP-Sil88 column for FAME (100 m×250 μm×0.25 μm) (Chrompack, Middelburg, The Netherlands). The GC conditions were as adapted to each sample type. Peaks were identified by comparison of retention times with those of the corresponding standards (Sigma, Botnew, Belgium; Nu-Chek-Prep, Elysian, M N). Identification of the peaks included fatty acids between 12:0 and 22:6 and 5 different CLA isomers and phytanic acid and pristanic acid.
Hybrid boars weighing in at about 80 kg were kept lege artis and fed a standard finishing granulated feed sprayed on with phytol at a level of 2% of feed weight. The feed was formulated and produced by Schatteman in Wetteren, Belgium and contained on average about 7% of humidity. On spraying, the feed readily absorbed this oily substance. […] Tissue samples were taken and the carcass quality assessed. The carcasses were further butchered in the usual fashion to chops, loins, sausages and the like and the meat quality of the prime cuts was assessed.
The quality was assessed objectively using the following parameters: % meat on the carcass, type-index, meat class, meat moisture, meat color, meat temperature and meat pH change.

ROSS 308 broiler chicks = assay: Broiler feeding trial with phytol supplemented feed; assay type: in vivo, chicken; conditions: 42 days
Protocol: as §1
ROSS 308 broiler chicks were raised, lege artis, on an ad libitum diet, containing phytol at 2% by weight of feed that, characteristically, contains about 10% of humidity. The chicks consumed an average of about 0.1 kg dry weight of the feed per day. The phytol in the diet replaced 2% of the soybean oil included in feeds formulated based on the INVE Nutritional Requirement standard formula for a grower feed (formula 120). Please refer to the following tables for the feed formula and for its chemical composition.
The animals were slaughtered after 42 days and their tissues sampled for analysis.

[1] = test system: Tiger shrimp (Penaeus Monodon); assay: Shrimp feeding trial with phytol supplemented diet; assay type: in vivo; conditions: 2% phytol diet, 4 weeks
laboratory animals = conditions: Steinberg 1966, cited from earlier work
ISABROWN layers = assay: Layer feeding trial with phytol supplemented feed; assay type: in vivo; conditions: 2% phytol in feed, compared with standard layer diet
lean pork = conditions: cited from earlier work
yellow perch = conditions: max 0.6% CLA in diet, Twibell 2001; cited from earlier work
Chicken meat = conditions: max 1.5% CLA in diet, Szymczyk 2001; cited from earlier work
egg yolk = conditions: cited from earlier work
Carp = conditions: max 1% CLA in diet, Choi 1999; cited from earlier work
striped bass = conditions: max 0.6% CLA in diet, Twibell 2000; cited from earlier work
PPAR gamma = biological target: T2, PPAR gamma (Homo sapiens, UniProt P37231); conditions: Houseknecht 1998, Yu 2002; cited from earlier work
T2 sequence (P37231 1-505): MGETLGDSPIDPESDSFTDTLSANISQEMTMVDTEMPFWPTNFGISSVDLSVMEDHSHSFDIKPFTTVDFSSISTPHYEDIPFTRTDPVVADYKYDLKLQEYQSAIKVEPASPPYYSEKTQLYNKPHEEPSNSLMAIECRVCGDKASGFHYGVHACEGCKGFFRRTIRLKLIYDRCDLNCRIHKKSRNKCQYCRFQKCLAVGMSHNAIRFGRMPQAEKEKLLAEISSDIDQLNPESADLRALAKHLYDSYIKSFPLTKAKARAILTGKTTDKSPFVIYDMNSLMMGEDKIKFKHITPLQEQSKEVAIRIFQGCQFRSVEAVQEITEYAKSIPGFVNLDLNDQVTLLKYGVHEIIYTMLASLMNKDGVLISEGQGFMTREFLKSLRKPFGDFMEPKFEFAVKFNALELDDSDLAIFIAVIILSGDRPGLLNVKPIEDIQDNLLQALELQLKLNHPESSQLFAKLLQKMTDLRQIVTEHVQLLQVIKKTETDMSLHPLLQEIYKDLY

CC(C)CCC[C@@H](C)CCC[C@@H](C)CCCC(C)CC(=O)O (some centres unmarked) [PhA, tetramethylhexadecanoic acid]
RXR ligand (RXR): ligand of RXR | PPAR alpha activation (PPAR alpha; physiologic concentrations, Ellinghaus 1999): potent activator of PPAR alpha

C/C(=C\CO)CCC[C@H](C)CCC[C@H](C)CCCC(C)C [phytol]
sickness or death (Hybrid boars; 2% phytol feed, entire finishing period): no animals got sick or died | content of PhA and PrA in the pork meat (Hybrid boars; male, hybrid, pig, in vivo, 1 month): 2.3 % of total FAME fatty acids | feeding behavior or level of activity (Hybrid boars; pig, in vivo): no difference | mortality or morbidity (ROSS 308 broiler chicks; 2% phytol in feed, compared with standard broiler feed): no difference | PhA average level in breast meat (ROSS 308 broiler chicks; ROSS 308, chicken, in vivo): 2.6 % of total fatty acids | content of PhA in the breast meat, one subgroup (ROSS 308 broiler chicks; ROSS 308, chicken, in vivo): around 1.9% | content of PhA in the breast meat, other subgroup (ROSS 308 broiler chicks; ROSS 308, chicken, in vivo): around 3.6% | survival rate ([1]; vs standard diet): no difference | growth (weight at end of feeding trial) ([1]; start 0.7 g): 2.05 g | morbidity (growth retardation, weight loss and lethargy) (laboratory animals; from levels of supplementation of 1% of diet weight on): substantial morbidity | mortality (laboratory animals; levels of 5% of diet weight): serious mortality rates | mortality nor morbidity (ISABROWN layers): no difference

conjugated linoleic acid [CLA]
max of TFA (maximum level of CLA in product as percent of total fatty acids) (lean pork; lean pork (>100 kg), max 1% CLA in diet, Thiel-Cooper 2001): 0.7% | max of TFA (maximum level of CLA in product as percent of total fatty acids) (lean pork; lean pork (>100 kg), max 5% CLA in diet, Joo 2002): 1.6% | max of TFA (maximum level of CLA in product as percent of total fatty acids) (lean pork; lean pork (up to 55 kg), max 1.4% CLA in diet, Ramsey 2001): 3.2% | PPAR alpha agonism (PPAR alpha; Moya-Camarena 1999): agonist of PPAR alpha | max of TFA (maximum level of CLA in product as percent of total fatty acids) (yellow perch): 2.92% | max of TFA (maximum level of CLA in product as percent of total fatty acids) (Chicken meat): 10.27% | max of TFA (maximum level of CLA in product as percent of total fatty acids) (egg yolk; max 2% CLA in diet, Shafer 2001): 7.95% | max of TFA (maximum level of CLA in product as percent of total fatty acids) (egg yolk; max 3% CLA in diet, Raes 2002): 5.3% | max of TFA (maximum level of CLA in product as percent of total fatty acids) (egg yolk; max 5% CLA in diet, Chamruspollert 1999): 11.2% | max of TFA (maximum level of CLA in product as percent of total fatty acids) (Carp): 13% | max of TFA (maximum level of CLA in product as percent of total fatty acids) (striped bass): 8.1% | PPAR gamma agonism (PPAR gamma): agonist of PPAR gamma
